Data taken from patent US7897765B2, “Therapeutic compounds and uses thereof” (Elixir Pharmaceuticals, Inc., priority 2003, dated 2011).

Each compound was assayed against GHS-R (Homo sapiens, UniProt Q92847) (assay: cell based assay of GHS-R antagonist/agonist activity). Settings: GHS-R antagonist Ki and/or agonist EC50 class.
Set-up: key: A refers to a compound having antagonist activity with Ki<100 nM in a cell based assay; B refers to a compound having agonist activity with EC50<100 nM in a cell based assay; C refers to a compound having antagonist activity of Ki>100 nM and <1500 nM in a cell based assay; D refers to a compound having antagonist activity with Ki, <100 nM and agonist activity with EC50<100 nM in a cell-based assay; E refers to other exemplary compounds
How it was run: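 COS-7 cells transfected with GHS-R, labelled with [3H]-myo-inositol, preincubated in 10 mM LiCl buffer pH 7.4, then given compound 45 min at 37 °C; [3H]-IP isolated by anion exchange. Alternatively, CREB-luciferase reporter in transfected HEK293 with 5 h compound exposure. IC50/EC50 by nonlinear regression.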

Chain of GHS-R (Q92847 whole entry, species assumed): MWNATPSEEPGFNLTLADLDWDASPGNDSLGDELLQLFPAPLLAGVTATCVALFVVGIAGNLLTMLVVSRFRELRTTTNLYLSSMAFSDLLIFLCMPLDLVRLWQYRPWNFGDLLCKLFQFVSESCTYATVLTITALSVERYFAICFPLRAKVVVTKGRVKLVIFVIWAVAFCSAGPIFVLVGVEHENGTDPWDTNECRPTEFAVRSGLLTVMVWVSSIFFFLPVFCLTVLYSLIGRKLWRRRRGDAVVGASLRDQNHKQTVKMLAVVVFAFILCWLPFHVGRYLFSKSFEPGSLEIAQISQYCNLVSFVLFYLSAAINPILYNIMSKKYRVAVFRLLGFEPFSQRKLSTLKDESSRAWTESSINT

| Compound | Activity |
| --- | --- |
| CC(=O)N(CC1CCN(C(=O)OC(C)(C)C)CC1)[C@H](COCc1ccccc1)C(=O)N1CCC2(CC1)CN(S(C)(=O)=O)c1ccccc12 [Compound 108] | E |
| CC(C)N1CCC(C(=O)N[C@H](COCc2ccccc2)C(=O)N2CCC3(CC2)CN(S(C)(=O)=O)c2ccccc23)CC1 [Compound 110] | E |
| CCN(CC)CCC(=O)N[C@H](COCc1ccccc1)C(=O)N1CCC2(CC1)CN(S(C)(=O)=O)c1ccccc12 [Compound 111] | E |
| CC1=NCCC(C(=O)N[C@H](COCc2ccccc2)C(=O)N2CCC3(CC2)CN(S(C)(=O)=O)c2ccccc23)N1 (some centres unmarked) [Compound 112] | E |
| CN1CCC[C@H]1CC(=O)N[C@H](COCc1ccccc1)C(=O)N1CCC2(CC1)CN(S(C)(=O)=O)c1ccccc12 [Compound 113] | E |
| CS(=O)(=O)N1CC2(CCN(C(=O)[C@@H](COCc3ccccc3)NC(=O)[C@@H]3CCC[C@H](CN)C3)CC2)c2ccccc21 [Compound 114] | E |
| CN1CCC(C(=O)N[C@H](COCc2ccccc2)C(=O)N2CCC3(CC2)CN(S(C)(=O)=O)c2ccccc23)C1 (some centres unmarked) [Compound 115] | E |
| CN1CCC[C@H](C(=O)N[C@H](COCc2ccccc2)C(=O)N2CCC3(CC2)CN(S(C)(=O)=O)c2ccccc23)C1 [Compound 116] | E |
| CS(=O)(=O)N1CC2(CCN(C(=O)[C@@H](COCc3ccccc3)NC(=O)C3(N)CCCCC3)CC2)c2ccccc21 [Compound 117] | E |
| CN(C)C1(C(=O)N[C@H](COCc2ccccc2)C(=O)N2CCC3(CC2)CN(S(C)(=O)=O)c2ccccc23)CCCCC1 [Compound 118] | E |
| CN(C)C1(C(=O)N[C@H](COCc2ccccc2)C(=O)N2CCC3(CC2)CN(S(C)(=O)=O)c2ccccc23)CCCC1 [Compound 119] | E |
| CS(=O)(=O)N1CC2(CCN(C(=O)[C@@H](COCc3ccccc3)NC(=O)C3(N)CC3)CC2)c2ccccc21 [Compound 120] | E |
| CS(=O)(=O)N1CC2(CCN(C(=O)[C@@H](COCc3ccccc3)NC(=O)c3ccc(CN)cc3)CC2)c2ccccc21 [Compound 121] | E |
| CS(=O)(=O)N1CC2(CCN(C(=O)[C@@H](COCc3ccccc3)NC(=O)c3cccc(CN)c3)CC2)c2ccccc21 [Compound 122] | E |
| CN(C)CC(=O)N[C@H](Cc1ccccc1)C(=O)N1CCC2(CC1)CN(S(C)(=O)=O)c1ccccc12 [Compound 123] | E |
| CN(C)CC(=O)N[C@@H](Cc1ccccc1)C(=O)N1CCC2(CC1)CN(S(C)(=O)=O)c1ccccc12 [Compound 124] | E |
| CC(C)(N)C(=O)N[C@H](COCc1ccccc1)C(=O)N1CCC2(CC1)CN(S(C)(=O)=O)c1ccccc12.CS(=O)(=O)O [Compound 125] | B (B refers to a compound having agonist activity with EC50<100 nM in a cell based assay) |
| CC(=O)NC(C)(C)C(=O)N[C@H](COCc1ccccc1)C(=O)N1CCC2(CC1)CN(S(C)(=O)=O)c1ccccc12 [Compound 126] | B (B refers to a compound having agonist activity with EC50<100 nM in a cell based assay) |
| CN(C)CC(=O)NC(C)(C)C(=O)N[C@H](COCc1ccccc1)C(=O)N1CCC2(CC1)CN(S(C)(=O)=O)c1ccccc12 [Compound 127] | B (B refers to a compound having agonist activity with EC50<100 nM in a cell based assay) |
| CS(=O)(=O)N1CC2(CCN(C(=O)[C@@H](COCc3ccccc3)NC(=O)C3CCNCC3)CC2)c2ccccc21 [Compound 128] | B (B refers to a compound having agonist activity with EC50<100 nM in a cell based assay) |
| CN[C@@H](C)C(=O)N[C@H](COCc1ccccc1)C(=O)N1CCC2(CC1)CN(S(C)(=O)=O)c1ccccc12 [Compound 129] | B (B refers to a compound having agonist activity with EC50<100 nM in a cell based assay) |
| CN[C@H](C)C(=O)N[C@H](COCc1ccccc1)C(=O)N1CCC2(CC1)CN(S(C)(=O)=O)c1ccccc12 [Compound 130] | B (B refers to a compound having agonist activity with EC50<100 nM in a cell based assay) |
| CN(C)C(C)(C)C(=O)N[C@H](COCc1ccccc1)C(=O)N1CCC2(CC1)CN(S(C)(=O)=O)c1ccccc12 [Compound 131] | B (B refers to a compound having agonist activity with EC50<100 nM in a cell based assay) |
| CNC(C)(C)C(=O)N[C@H](COCc1ccccc1)C(=O)N1CCC2(CC1)CN(S(C)(=O)=O)c1ccccc12 [Compound 132] | B (B refers to a compound having agonist activity with EC50<100 nM in a cell based assay) |
| CN1CCCC[C@@H]1C(=O)N[C@H](COCc1ccccc1)C(=O)N1CCC2(CC1)CN(S(C)(=O)=O)c1ccccc12.Cl [Compound 133] | B (B refers to a compound having agonist activity with EC50<100 nM in a cell based assay) |

| Compound | Activity |
| --- | --- |
| CS(=O)(=O)N1CC2(CCN(C(=O)[C@@H](COCc3ccccc3)NC(=O)C3(N)CCCC3)CC2)c2ccccc21 [Compound 134] | B (B refers to a compound having agonist activity with EC50<100 nM in a cell based assay) |
| CN1CCC(C(=O)N[C@H](Cc2c[nH]c3ccccc23)C(=O)N2CCC3(CC2)CN(S(C)(=O)=O)c2ccccc23)CC1 [Compound 135] | E |
| CN1CCC(C(=O)N[C@H](CCc2ccccc2)C(=O)N2CCC3(CC2)CN(S(C)(=O)=O)c2ccccc23)CC1 [Compound 136] | E |
| C[C@@H](OCc1ccccc1)C(NC(=O)C1CCN(C)CC1)C(=O)N1CCC2(CC1)CN(S(C)(=O)=O)c1ccccc12 (some centres unmarked) [Compound 137] | E |
| CN1CCC(C(=O)NC(Cc2ccc3ccccc3c2)C(=O)N2CCC3(CC2)CN(S(C)(=O)=O)c2ccccc23)CC1 (centres unmarked) [Compound 138] | E |
| CN1CCC(NC(=O)N2C[C@H](OCc3ccccc3)CC2C(=O)N2CCC3(CC2)CN(S(C)(=O)=O)c2ccccc23)CC1 (some centres unmarked) [Compound 139] | E |
| Cc1ccc(CSC[C@H](NC(=O)C2CCN(C)CC2)C(=O)N2CCC3(CC2)CN(S(C)(=O)=O)c2ccccc23)cc1 [Compound 140] | E |
| CN1CCC(C(=O)N[C@H](CC(=O)N2CCC3(CC2)CN(S(C)(=O)=O)c2ccccc23)Cc2c[nH]c3ccccc23)CC1 [Compound 141] | E |
| CC(OCc1ccccc1)[C@@H](CC(=O)N1CCC2(CC1)CN(S(C)(=O)=O)c1ccccc12)NC(=O)C1CCN(C)CC1 (some centres unmarked) [Compound 142] | E |
| CN1CCC(S(=O)(=O)N[C@H](COCc2ccccc2)C(=O)N2CCC3(CC2)CN(S(C)(=O)=O)c2ccccc23)CC1 [Compound 143] | A (A refers to a compound having antagonist activity with Ki<100 nM in a cell based assay) |
| CS(=O)(=O)N1CC2(CCN(C(=O)[C@@H](COCc3ccccc3)NS(=O)(=O)CCN3CCOCC3)CC2)c2ccccc21 [Compound 144] | E |
| CC(C)(C)NCCS(=O)(=O)N[C@H](COCc1ccccc1)C(=O)N1CCC2(CC1)CN(S(C)(=O)=O)c1ccccc12 [Compound 145] | E |
| CC(C)NCCS(=O)(=O)N[C@H](COCc1ccccc1)C(=O)N1CCC2(CC1)CN(S(C)(=O)=O)c1ccccc12 [Compound 146] | C (C refers to a compound having antagonist activity of Ki>100 nM and <1500 nM in a cell based assay) |
| C=CS(=O)(=O)N[C@H](COCc1ccccc1)C(=O)N1CCC2(CC1)CN(S(C)(=O)=O)c1ccccc12 [Compound 147] | E |
| CC(C)NCCCS(=O)(=O)N[C@H](COCc1ccccc1)C(=O)N1CCC2(CC1)CN(S(C)(=O)=O)c1ccccc12 [Compound 148] | A (A refers to a compound having antagonist activity with Ki<100 nM in a cell based assay) |
| CS(=O)(=O)N1CC2(CCN(C(=O)[C@@H](COCc3ccccc3)NS(=O)(=O)CCCN3CCOCC3)CC2)c2ccccc21 [Compound 149] | E |
| CC(C)(C)NCCCS(=O)(=O)N[C@H](COCc1ccccc1)C(=O)N1CCC2(CC1)CN(S(C)(=O)=O)c1ccccc12 [Compound 150] | A (A refers to a compound having antagonist activity with Ki<100 nM in a cell based assay) |
| CS(=O)(=O)N1CC2(CCN(C(=O)[C@@H](COCc3ccccc3)NS(=O)(=O)CCN3C4CCCC3CC4)CC2)c2ccccc21 [Compound 151] | C (C refers to a compound having antagonist activity of Ki>100 nM and <1500 nM in a cell based assay) |
| CN1C2CCC1CC(S(=O)(=O)N[C@H](COCc1ccccc1)C(=O)N1CCC3(CC1)CN(S(C)(=O)=O)c1ccccc13)C2 (some centres unmarked) [Compound 152] | C (C refers to a compound having antagonist activity of Ki>100 nM and <1500 nM in a cell based assay) |
| CS(=O)(=O)N1CC2(CCN(C(=O)[C@@H](COCc3ccccc3)NS(=O)(=O)CCCCl)CC2)c2ccccc21 [Compound 153] | A (A refers to a compound having antagonist activity with Ki<100 nM in a cell based assay) |
| CN1CCC(S(=O)(=O)N[C@H](COCc2ccccc2)C(=O)N2CCC3(C=Cc4ccccc43)CC2)CC1 [Compound 154] | C (C refers to a compound having antagonist activity of Ki>100 nM and <1500 nM in a cell based assay) |
| CCN(CC)CCCS(=O)(=O)N[C@H](COCc1ccccc1)C(=O)N1CCC2(CC1)CN(S(C)(=O)=O)c1ccccc12 [Compound 155] | A (A refers to a compound having antagonist activity with Ki<100 nM in a cell based assay) |
| CN(C)CCCS(=O)(=O)N[C@H](COCc1ccccc1)C(=O)N1CCC2(CC1)CN(S(C)(=O)=O)c1ccccc12 [Compound 156] | E |
| CS(=O)(=O)N1CC2(CCN(C(=O)[C@@H](COCc3ccccc3)NS(=O)(=O)CCCNC3CC3)CC2)c2ccccc21 [Compound 157] | E |
| CS(=O)(=O)N1CC2(CCN(C(=O)[C@@H](COCc3ccccc3)N3CCCS3(=O)=O)CC2)c2ccccc21 [Compound 158] | E |
